Literature values as cited in patent US6723337B1, “Transdermal drug delivery system for anti-inflammatory analgesic agent comprising diclofenac diethylammonium salt, and the manufacturing method thereof” (Samyang Corporation, priority 1997, dated 2004).

Conditions: composition comprising hydroxy ethyl pyrrolidone or hydroxy ethyl piperidine as absorption enhancer

- transdermal penetration of the accumulated diclofenac: 180 μg/cm^2·day
SMILES: O=C(O)Cc1ccccc1Nc1c(Cl)cccc1Cl [diclofenac]
